According to patent US7220575B2, “Melanoma differentiation associated gene-5 and promoter and uses thereof” (priority 2000, dated 2007):
“Also recorded” adds a separate entry of the source.

What was measured:
mda-5 expression [1] = assay: Northern blot analysis of mda-5 expression in HO-1 human melanoma cells; format: cell-based; conditions: HO-1 cells; for mda-5 expression (steady-state mda-5 message level): treated 24 hr, Northern blot
Protocol: (§1) FIGS. 2A–2B. Northern blot analysis of mda-5 expression by various compounds inducing differentiation in HO-1 human melanoma cells. RNA samples were extracted from cells treated as indicated for 24 hr. FIG. 2A. HO-1 human melanoma cells. FIG. 2B. Early passage human skin fibroblast cells. Northern hybridization was performed as in Materials and Methods.
(§2) FIGS. 4A–4B. Northern blot analysis of mda-5 expression by ligands for various membrane receptors. RNA samples were extracted from cells treated as indicated for 24 hr. FIG. 4A. HO-1 human melanoma cells. FIG. 4B. Early passage human skin fibroblast cells. Northern hybridization was performed as in Materials and Methods.
FIG. 5. Northern blot analysis and time course of mda-5 expression. RNA samples were extracted from HO-1 cells treated with the indicated reagents and harvested at the indicated time after treatment. Northern blotting was performed as in Materials and Methods.
(§3) FIGS. 7A–7C. […] A. Northern blot analysis of mda-5. […] Cells were harvested at the indicated time after actinomycin D treatment. Northern hybridization was performed as in Materials and Methods. FIG. 7B. Nuclear run-on assays for determining mda-5 transcription rates. Nuclei were prepared from HO-1 melanoma cells treated with the indicated reagent(s) for 4 hr. Blots were prepared and hybridized as described in Materials and Methods. […] FIG. 7C. Northern blot analysis of mda-5 expression after blocking protein synthesis by cycloheximide (CHX). RNA samples were extracted from HO-1 melanoma cells pretreated with 50 μg/ml cycloheximide for 30 min and treated with the indicated reagents for 8 hr. Abbreviations and concentrations of indicated reagents are as in FIG. 4.
(§4) Cell Culture and Treatment Protocol: HO-1 human melanoma cells, early passage human skin fibroblast (purchased from ATCC) and 293T cells were grown in Dulbecco's modified Eagle's medium supplemented with 10% fetal bovine serum at 37° C. in a 5% CO2/95% air humidified incubator. Prior to treatment, cells were refed with fresh medium and exposed to the indicated compound(s) at the concentrations specified in the figure legends.
(§5) Northern Blot Analyses and Nuclear Run-On Assays: Total cellular RNA samples were prepared by guanidium isothiocyanate/phenol extraction followed by isopropanol precipitation. Ten 10 μg of total RNA were resolved in 1% agarose gels with formaldehyde and were transferred to Nylon membranes. EcoRI fragment of mda-5 cDNA (2.5 kb) was labeled with 32P using a multiprime labeling kit (Boehringer Mannheim) and used to probe the transferred membrane. Nuclear run-on assays were performed as previously described ((17) Su et al., 1993, 1999). Probes used for nuclear run-on assays were prepared by RT-PCR and included the mda-5 5′, 9–837 bp; mda-5 3′, 2531–3365 bp; and GAPDH fragment.

mda-5 transcription = assay: Nuclear run-on assays for mda-5 transcription rates in HO-1 melanoma cells; format: cell-based, human; conditions: HO-1 cells treated 4 hr
Protocol: as §3
as §5, with “Probes used for nuclear run-on assays were prepared by RT-PCR and included the mda-5 5′, 9–837 bp; mda-5 3′, 2531–3365 bp; and GAPDH fragment.” left out

mda-5 expression [2] = assay: Northern blot analysis of mda-5 expression in early passage human skin fibroblast cells; format: cell-based
Protocol: as §1, §2, §4, §5

mda-5 promoter = mda-5 promoter luciferase reporter in HO-1 cells (transient and stable clones); format: cell-based, human
Protocol: FIG. 11: Screening of stable human HO-1 melanoma clones for promoter activity of stably integrated mda-5 reporter construct. Transfected HO-1 cells were selected by Puromycin drug selection and individual colonies analyzed for induction of luciferase activity in the presence of IFN-β. Values are expressed as fold change against uninduced values of luciferase activity.
FIG. 12: Induction kinetics of mda-5 promoter activity. Stable clones #20 and #40 were treated with IFN-β and samples were harvested and analyzed for luciferase activity at the times indicated.
FIG. 13: Responsiveness of the mda-5 promoter to IFN-β levels: Stable clones #20 and #40 were treated with IFN-β and samples were harvested and analyzed for luciferase activity 48h after initiation of treatment. The extent of activity was normalized based on equivalent protein content and performed in duplicate for each clone.
FIGS. 14A–14B: Responsiveness of the mda-5 promoter to various inducers: FIG. 14A. HO-1 cells transiently transfected with the mda-5 reporter and treated for 48 h with equivalent units of IFNs α, β and γ and TNF-α and poly IC:IC. The luciferase activity was expressed as fold increase over untreated control cells. FIG. 14B. Clone #40 was treated with equivalent units of the indicated IFNs for 48 h and luciferase activity expressed as fold activation over untreated cells determined. […]

C[C@@H]1C[C@@H]([C@H](O)CC2CC(=O)NC(=O)C2)C(=O)[C@@H](C)C1 [Cycloheximide, cycloheximide]
effect of cycloheximide pre-treatment on mda-5 steady-state mRNA levels induced by IFNs, TNF and poly IC (mda-5 expression [1]; 50 μg/ml cycloheximide 30 min, then inducers 8 hr): does not inhibit

C=C(C)[C@@]12O[C@@]3(c4ccccc4)O[C@@H]1[C@@H]1[C@@H]4O[C@]4(CO)[C@@H](O)[C@]4(O)C(=O)C(C)=C[C@H]4[C@@]1(O3)[C@H](C)[C@H]2OC(=O)/C=C/C=C/c1ccccc1 [MEZ, mezerein]
augmentation of mda-5 expression by MEZ in combination with IFN-β (mda-5 expression [1]; 24 hr): approximately 3 fold
augmentation of mda-5 expression by MEZ in combination with IFN-γ (mda-5 expression [1]; 24 hr): ~5 fold
time at which mda-5 message level begins increasing / induction first apparent (mda-5 expression [1]; time course): 48 h
mda-5 expression (steady-state mda-5 message level) (mda-5 expression [1]): does not induce mda-5 expression
mda-5 transcription (nuclear run-on) (mda-5 transcription): negligible levels of transcription

CCCCCCCCCCCCCC(=O)O[C@@H]1[C@@H](C)[C@@]2(O)[C@@H](C=C(CO)C[C@]3(O)C(=O)C(C)=C[C@@H]23)[C@@H]2C(C)(C)[C@]12OC(C)=O [TPA, 12-O-tetradecanoylphorbol-13-acetate]
mda-5 expression (steady-state mda-5 message level) (mda-5 expression [1]): fail to significantly induce mda-5 expression

CC1=C(/C=C/C(C)=C/C=C/C(C)=C/C(=O)O)C(C)(C)CCC1 [all trans retinoic acid, all-trans-retinoic acid]
mda-5 expression (steady-state mda-5 message level) (mda-5 expression [1]): fail to significantly induce mda-5 expression

Nc1ncnc2c1ncn2[C@@H]1O[C@@H]2COP(=O)(O)O[C@H]2[C@H]1O [cyclic-AMP, 3′–5′ cyclic adenosine monophosphate]
mda-5 expression (steady-state mda-5 message level) (mda-5 expression [1]): fail to significantly induce mda-5 expression

C[S+](C)[O-] [dimethyl sulfoxide]
mda-5 expression (steady-state mda-5 message level) (mda-5 expression [1]): fail to significantly induce mda-5 expression

COc1c(C)c2c(c(O)c1C/C=C(\C)CCC(=O)O)C(=O)OC2 [mycophenolic acid]
mda-5 expression (steady-state mda-5 message level) (mda-5 expression [1]): fail to significantly induce mda-5 expression

IFN-α
mda-5 expression (steady-state mda-5 message level) (mda-5 expression [1]): induce mda-5 expression; also recorded: increase mda-5 transcript levels, but the magnitude of this effect is less than with IFN-β or dsRNA
mda-5 expression (mda-5 expression [2]): induce mda-5 expression

IFN-γ: interferon-γ
mda-5 expression (steady-state mda-5 message level) (mda-5 expression [1]): induce mda-5 expression; also recorded: increase mda-5 transcript levels, but the magnitude of this effect is less than with IFN-β or dsRNA
mda-5 expression (mda-5 expression [2]): induce mda-5 expression

TNF-α
mda-5 expression (steady-state mda-5 message level) (mda-5 expression [1]): induce mda-5 expression; also recorded: comparable levels as seen with IFN-α
mda-5 expression (mda-5 expression [2]): induce mda-5 expression

poly IC
mda-5 expression (steady-state mda-5 message level) (mda-5 expression [1]): induce mda-5 expression
mda-5 expression (steady-state mda-5 message level) (mda-5 expression [1]; listed as dsRNA): dramatically increases
mda-5 expression (mda-5 expression [2]): induce mda-5 expression
responsiveness of mda-5 promoter construct / clones to inducer (mda-5 promoter): most responsive
